Measurements reported in US5017568A, “Steriod 5-alpha-reductase inhibitors” (SmithKline Beecham Corporation, priority 1990, dated 1991).
Entries after “also recorded” stand apart in the source; their conditions may differ. Where two headings read alike, the source gives them in different places.

Tests used:
[1] = biological target: T1, human prostatic steroid 5-α-reductase (Homo sapiens, UniProt P31213); assay: Inhibition of human prostatic steroid 5-α-reductase (conversion of [14C]-testosterone, prostatic particulates); format: biochemical; conditions: for Ki: pH 5.0, 37° C., competitive versus testosterone assumed, Dixon analysis, read-out: Inhibition Constants of Human Prostatic Steroid 5-α-Reductase, Ki
T1 construct: Prostatic particles were obtained by differential centrifugation; from tissue; host or cells: hyperplastic human prostate, particulate fraction (140,000 x g pellet)
T1 sequence (P31213 1-254): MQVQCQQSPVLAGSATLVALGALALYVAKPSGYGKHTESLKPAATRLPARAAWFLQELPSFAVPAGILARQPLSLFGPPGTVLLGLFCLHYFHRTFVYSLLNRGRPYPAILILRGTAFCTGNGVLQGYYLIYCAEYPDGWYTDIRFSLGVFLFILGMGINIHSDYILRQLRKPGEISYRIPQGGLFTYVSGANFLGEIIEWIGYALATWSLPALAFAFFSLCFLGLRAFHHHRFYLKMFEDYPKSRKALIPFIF
Experimental: Such diseases and conditions include acne vulgaris, seborrhea, female hirsutism, prostate diseases such as benign prostatic hypertrophy and prostatic adenocarcinoma and male pattern baldness. The potency of several compounds of the invention was tested for potency in inhibiting human steroid 5-α-reductase using tissue from hyperplastic human prostates. In determining potency in inhibiting the human enzyme, the following procedure was employed:
Frozen human prostates were thawed and minced into small pieces (5 mm^3). The tissue was homogenized in 3 to 5 volumes of 20 mM potassium phosphate, pH 6.5, buffer containing 0.33 M sucrose, 1 mM dithiothreitol, and 50 μM NADPH with a Brinkmann Polytron (Sybron Corporation, Westbury, N.Y.). The solution was subjected to sonication for 3 to 5 minutes with a Sonifier Branson Sonic Power Co.) followed by hand homogenization in a glass-to-glass Dounce homogenizer (Kontes Glass Company, Vineland, N.J.).
Prostatic particles were obtained by differential centrifugation at 600 or 1,000 x g for 20 minutes and 140,000 x g for 60 minutes at 4° C. The pellet obtained from the 140,000 x g centrifugation was washed with 5 to 10 tissue volumes of the buffer described above and recentrifuged at 140,000 x g. The resulting pellet was suspended in 20 mM potassium phosphate buffer, pH 6.5, containing 20% glycerol, 1 mM dithiothreitol, and 50 μM NADPH. The suspended particulate solution was stored at -80° C.
A constant amount of [^14 C]-testosterone (52 to 55 mCi/mmol, New England Nuclear, Boston, MA) in ethanol and varying amounts of the potential inhibitor in ethanol were deposited in test tubes and concentrated to dryness in a SAVANT Speed Vac. To each tube was added buffer, 20 μl of 10 mM NADPH and an aliquot of prostatic particulate solution to a final volume of 1.0 ml of 50 mM sodium citrate, pH 5.0. After incubating the solution at 37° C. for 20 to 30 minutes the reaction was quenched by the addition of 4 ml ethyl acetate and 0.25 μmol each of testosterone, dihydrotestosterone, androstanediol, and androstanedione as carriers. The organic layer was removed to a second test tube and evaporated to dryness in a Speed Vac. The residue was dissolved in 20 to 30 μl chloroform, spotted on an individual lane of a 20 x 20 cm prechannelled silica gel TLC plate (Si 250F PA, Baker Chemical) and developed twice with acetone:chloroform (1:9). The radiochemical content in the bands of the substrate and the products was determined with a BIOSCAN Imaging Scanner (Bioscan, Inc., Washington, D.C.). The percent of recovered radiolabel converted to product was calculated, from which enzyme activity was determined. All incubations were conducted such that no more than 12% of the substrate (testosterone) was consumed.
The experimentally obtained data was computer fitted to a linear function by plotting the reciprocal of the enzyme activity (1/velocity) against the variable inhibitor concentration (Dixon, M. (1953), Biochem. J., 55, 170). Assuming that the steroidal inhibitor is a competitive inhibitor against testosterone, a value for the inhibition constant (Ki) can be calculated from equation 1:
Ki =(B/A)/[…]) Equation 1

steroid 5-α-reductase [2] = conditions: cited from earlier work; for mode of 5-α-reductase inhibition: in words
steroid 5-α-reductase [3] = assay: In vivo inhibition of steroid 5-α-reductase: prostatic DHT (and testosterone) levels in rats; parameters: species or system rat
Experimental: Certain compounds of the invention also were tested for their in vivo potency in inhibiting steroid 5-α-reductase activity. Male Charles River CD rats, 48 days old, weighing approximately 200 gm were administered 10 mg/kg of N,N-diisopropyl androst-3,5-diene-17β-carboxamide-3-carboxylic acid dissolved in propylene glycol and diluted in normal saline. Following compound administration the animals were sacrificed, the ventral prostates were excised, and DHT levels were measured by the following procedure.
Prostate tissue was excised, trimmed, weighed, minced and washed with phosphate buffer. The tissue then was homogenized in phosphate buffer and extracted by addition of ethyl acetate and mixing on an orbital mixer for forty-five minutes. The ethyl acetate was evaporated, the residue was reconstituted in ethanol, and was centrifuge filtered using […] filter paper. The components then were separated using reverse-phase HPLC collecting the DHT fraction. The fraction was reduced to dryness and reconstituted in standard DHT assay buffer available from Amersham. DHT levels then were measured using standard techniques such as radioimmunoassay.
Using procedures similar to those described above the in vivo effects of 17β-N-t-butylcarbox-amide-androst-3,5-diene-3-carboxylic acid also were studied. Rats received a single oral dose of vehicle or 5, 10, 20 or 50 mg/kg of this compound.

ventral prostate = assay: Effect of repeated dosing on prostatic growth / ventral prostate weight in rats; format: in vivo, rat; conditions: for ventral prostate weight, percent of control: rats, two weeks
Experimental: N,N diisopropyl-androst-3,5 diene 17β-carboxamide-3-carboxylic acid also was tested for its effects on prostatic growth.

seminal vesicle = assay: Effect of repeated dosing on seminal vesicle weight in rats; format: in vivo, rat; conditions: rats, 1, 5, 10, 25 or 50 mg/kg twice daily, two weeks
steroid-5-α-reductase = assay: In vitro steroid 5-α-reductase inhibition; format: biochemical; conditions: in words
[4] = Irreversible, read-out: 5-α-reductase inhibition constant (Table 1)

C[C@H](CO)[C@H]1CC[C@H]2[C@@H]3CC[C@H]4C(F)=C(C(=O)O)CC[C@]4(C)[C@H]3CC[C@]12C
Ki [1]: 2000 nM

CCOC(=O)C1=CC2=CC[C@H]3[C@@H]4CC[C@H](C(=O)N(C(C)C)C(C)C)[C@@]4(C)CC[C@@H]3[C@@]2(C)CC1
Ki [1]: 4000 nM

CC(C)N(C(=O)[C@H]1CC[C@H]2[C@@H]3CC[C@H]4C(F)=C(C(=O)O)CC[C@]4(C)[C@H]3CC[C@]12C)C(C)C
Ki [1]: 26 nM

CC(C)N(C(=O)[C@H]1CC[C@H]2[C@@H]3CC=C4C=C(C(=O)O)C=C[C@]4(C)[C@H]3CC[C@]12C)C(C)C
Ki [1]: 50 nM

CC(C)N(C(=O)[C@H]1CC[C@H]2[C@@H]3CC(C(F)(F)F)=C4C=C(C(=O)O)CC[C@]4(C)[C@H]3CC[C@]12C)C(C)C
Ki [1]: 900 nM

CC(C)(C)NC(=O)[C@H]1CC[C@H]2[C@@H]3CC[C@H]4C=C(C(=O)O)CC[C@]4(C)[C@H]3CC[C@]12C
Ki [1]: 110 nM

C[C@]12CC[C@H]3[C@@H](CCC4=CC(=O)CC[C@@]43C)[C@@H]1CC[C@@H]2C(=O)O [(1)]
Ki (steroid 5-α-reductase [2]; Hsia and Voight 1973, read-out: K1): 1100 nM

CC(=O)[C@H]1CC[C@H]2[C@@H]3CC=C=CC(=O)CCC(=O)[C@H]3CC[C@]12C [(2)]
Ki (steroid 5-α-reductase [2]; [4]): 1000 nM | mode of 5-α-reductase inhibition (steroid 5-α-reductase [2]): Irreversible; also recorded: affinity label for 5 -α-reductase

CC(CO)[C@H]1CC[C@H]2[C@@H]3CC[C@H]4C(=[N+]=[N-])C(=O)CC[C@]4(C)[C@H]3CC[C@]12C (some centres unmarked) [(3)]
Ki (steroid 5-α-reductase [2]; Irreversible, Blohm, et al., 1980, read-out: 5-α-reductase inhibition constant (Table 1)): 35 nM | mode of 5-α-reductase inhibition (steroid 5-α-reductase [2]): Irreversible; also recorded: potent, time-dependent inhibitor

CCN(CC)C(=O)[C@H]1CC[C@H]2[C@@H]3CC[C@H]4N(C)C(=O)CC[C@]4(C)[C@H]3CC[C@]12C [(4)]
Ki (steroid 5-α-reductase [2]; Liang, et al., 1983, read-out: 5-α-reductase inhibition constant (Table 1)): 5 nM

C=C1C[C@@H]2[C@H](CC[C@@]3(C)[C@H]2CC[C@]3(OC(C)=O)C(C)=O)[C@@]2(C)CCC(=O)C=C12 [(5)]
Ki (steroid 5-α-reductase [2]; [4]): 1250 nM | mode of 5-α-reductase inhibition (steroid 5-α-reductase [2]): Irreversible; also recorded: time-dependent inactivator

CC(C)N(C(=O)[C@H]1CC[C@H]2[C@@H]3CC=C4C=C(C(=O)O)CC[C@]4(C)[C@H]3CC[C@]12C)C(C)C [N,N-Diisopropyl-androst-3,5-diene-17β-carboxamide-3-carboxylic acid]
duration of decreased DHT levels (steroid 5-α-reductase [3]; male CD rats, 10 mg/kg): greater than eight | decrease of prostatic DHT levels relative to vehicle-treated controls (steroid 5-α-reductase [3]; male CD rats, 10 mg/kg, four hours after administration): forty | return of prostatic DHT levels to control (steroid 5-α-reductase [3]; male CD rats, 10 mg/kg, twenty four hours after treatment): had returned to control levels | prostatic growth (ventral prostate; immature rats, 0.5 to 50 mg/kg twice daily oral, fourteen days): dose dependent decrease in prostatic growth | decrease of prostate weight versus controls (ventral prostate; immature rats, maximum dose group (50 mg/kg), twice daily oral, fourteen days): forty to fifty

CC(C)(C)NC(=O)[C@H]1CC[C@H]2[C@@H]3CC=C4C=C(C(=O)O)CC[C@]4(C)[C@H]3CC[C@]12C [N-t-Butyl Androst-3,5-diene-17β-carboxamide-3-Carboxylic Acid]
prostate dihydrotestosterone levels, percent of controls (steroid 5-α-reductase [3]; rats, 10 mg/kg, all time points from two to eighteen hours): approximately sixty | prostate testosterone levels (steroid 5-α-reductase [3]; rats, 10 mg/kg, over twenty four hours): viable without consistent trends | return of dihydrotestosterone levels to control values (steroid 5-α-reductase [3]; rats, 10 mg/kg, twenty-four hours post treatment): returned to control values | prostate testosterone levels (steroid 5-α-reductase [3]; rats, single oral dose 5, 10, 20 or 50 mg/kg): remained unaffected | prostate dihydrotestosterone levels, percent of controls (steroid 5-α-reductase [3]; rats, single oral dose 5, 10, 20 or 50 mg/kg (all doses)): approximately fifty | ventral prostate weight, percent of control (ventral prostate; 5 mg/kg twice daily): ninety | ventral prostate weight, percent of control (ventral prostate; 10 and 50 mg/kg twice daily): sixty five | seminal vesicle weights (seminal vesicle): significantly reduced at all treatment levels

CC(C)(C)NC(=O)[C@H]1CC[C@H]2[C@@H]3CC=C4C=C(C(=O)O)CC[C@]4(C)[C@H]3CC[C@]12C [drawing 35]
Ki [1]: 30 nM

COC(=O)C1=CC2=CC[C@H]3[C@@H]4CC[C@H](C(=O)N(C(C)C)C(C)C)[C@@]4(C)CC[C@@H]3[C@@]2(C)CC1 [methyl ester of the above compound, 3-Carbomethoxy-androst-3,5-diene-17β-N,N -diisopropylcarboxamide]
decrease of prostatic DHT levels relative to vehicle-treated controls (steroid 5-α-reductase [3]; rats, single 10 mg/kg dose, after six hours): forty eight | steroid 5-α-reductase inhibition in vivo (steroid 5-α-reductase [3]; rats, single 10 mg/kg dose, in words): significant enzyme inhibition | steroid-5-α-reductase inhibition in vitro (steroid-5-α-reductase): does not inhibit steroid-5-α-reductase in vitro

C[C@]12CC[C@H]3[C@@H](CCC4=CC(=O)CC[C@@]43C)[C@@H]1CC[C@@H]2O [testosterone, reference compound]
Km ([1]; determined in a separate experiment, read-out: Km of the substrate (testosterone)): 4.5 µM
